# Structures can show the parent of a compound that is named as a salt.
# Tested on: HCV replicon (NS3-NS5B regions of HCV type 1b) in Huh-7 luc/neo cells
# Assay: HCV replicon assay, stable replicon cell reporter assay (Huh-Luc, luciferase)
# Format: cell-based
# Details: Hepatitis C virus, Huh-7, 72 h, incubation of three days, luciferase activity
# Source text: The compounds of the present invention were examined for activity in the inhibition of HCV RNA replication in a cellular assay. […] The cellular assay was based on a bicistronic expression construct, as described by Lohmann et al. (1999) Science vol. 285 pp. 110-113 with modifications described by Krieger et al. (2001) Journal of Virology 75: 4614-4624, in a multi-target screening strategy. In essence, the method is as follows.
# The assay utilized the stably transfected cell line Huh-7 luc/neo (hereafter referred to as Huh-Luc; kindly provided by Dr Ralf Bartenschlager, Reblikon GmBh, Germany). This cell line harbors an RNA encoding a bicistronic expression construct comprising the wild type NS3-NS5B regions of HCV type 1b translated from an Internal Ribosome Entry Site (IRES) from encephalomyocarditis virus (EMCV), preceded by a reporter portion (FfL-luciferase), and a selectable marker portion (neo^R, neomycine phosphotransferase). The construct was bordered by 5′ and 3′ NTRs (non-translated regions) from HCV type 1b. Continued culture of the replicon cells in the presence of G418 (neo^R) is dependent on the replication of the HCV RNA. The stably transfected replicon cells that express HCV RNA, which replicates autonomously and to high levels, encoding inter alia luciferase, were used for screening the antiviral compounds.
# The replicon cells were plated in 384 well plates in the presence of the test and control compounds which were added in various concentrations. Following an incubation of three days, HCV replication was measured by assaying luciferase activity (using standard luciferase assay substrates and reagents and a Perkin Elmer ViewLux™ ultraHTS microplate imager). Replicon cells in the control cultures have high luciferase expression in the absence of any inhibitor. The inhibitory activity of the compound on luciferase activity was monitored on the Huh-Luc cells, enabling a dose-response curve for each test compound. EC50 values were then calculated, which value represents the amount of the compound required to decrease by 50% the level of detected luciferase activity, or more specifically, the ability of the genetically linked HCV replicon RNA to replicate (Table 1).
row,Structure (SMILES),EC50 [µM]
1,"CC(=O)Nc1nc2ccc(S(=O)(=O)N(CC(C)C)CC(O)C(Cc3ccccc3)NC(=O)OCc3cncs3)cc2o1 (centres unmarked) [Compound 1, {3-[(2-Acetylamino-benzooxazole-6-sulfonyl)-isobutyl-amino]-1-benzyl-2-hydroxy-propyl}-carbamic acid thiazol-5-ylmethyl ester]",2 to 10
2,"CCOC(=O)Nc1nc2ccc(S(=O)(=O)N(CC(C)C)CC(O)C(Cc3ccccc3)NC(=O)OCc3cncs3)cc2o1 (centres unmarked) [Compound 2, (6-{[2-Hydroxy-4-phenyl-3-(thiazol-5-ylmethoxycarbonyl-amino)-butyl]-isobutyl-sulfamoyl}-benzooxazol-2-yl)-carbamic acid ethyl ester]",10 to 32
3,"CC(C)CN(CC(O)C(Cc1ccccc1)NC(=O)OCc1cncs1)S(=O)(=O)c1ccc2nc(NC(=O)c3ccc(O)nc3)oc2c1 (centres unmarked) [Compound 3, [1-Benzyl-2-hydroxy-3-({2-[(6-hydroxy-pyridine-3-carbonyl)-amino]-benzooxazole-6-sulfonyl}-isobutyl-amino)-propyl]-carbamic acid thiazol-5-ylmethyl ester]",< 2
4,"CC(C)CN(CC(O)C(Cc1ccccc1)NC(=O)OCc1cncs1)S(=O)(=O)c1ccc2nc(NC(=O)c3cccnc3)oc2c1 (centres unmarked) [Compound 4, [1-Benzyl-2-hydroxy-3-(isobutyl-{2-[(pyridine-3-carbonyl)-amino]-benzooxazole-6-sulfonyl}-amino)-propyl]-carbamic acid thiazol-5-ylmethyl ester]",2 to 10
5,"CC(C)CN(CC(O)C(Cc1ccccc1)NC(=O)OCc1cncs1)S(=O)(=O)c1ccc2nc(N3CCCC3)oc2c1 (centres unmarked) [Compound 5, {1-Benzyl-2-hydroxy-3-[isobutyl-(2-pyrrolidin-1-yl-benzo-oxazole-6-sulfonyl)-amino]-propyl}-carbamic acid thiazol-5-ylmethyl ester]",2 to 10
6,"CC(C)CN(CC(O)C(Cc1ccccc1)NC(=O)OCc1cncs1)S(=O)(=O)c1ccc2nc(N(C)CCN3CCCC3)oc2c1 (centres unmarked) [Compound 6, {1-Benzyl-2-hydroxy-3-(isobutyl-{2-[methyl-(2-pyrrolidin-1-yl-ethyl)-amino]-benzooxazole-6-sulfonyl}-amino)-propyl]-carbamic acid thiazol-5-ylmethyl ester]",10 to 32
7,"CC(C)CN(CC(O)C(Cc1ccccc1)NC(=O)OCc1cncs1)S(=O)(=O)c1ccc2nc(NC(=O)CN3CCN(C)CC3)oc2c1 (centres unmarked) [Compound 7, [1-Benzyl-2-hydroxy-3-(isobutyl-{2-[2-(4-methyl-piperazin-1-yl)-acetylamino]-benzooxazole-6-sulfonyl}-amino)-propyl]-carbamic acid thiazol-5-ylmethyl ester]",2 to 10
8,"CC(C)CN(CC(O)C(Cc1ccccc1)NC(=O)OCc1cncs1)S(=O)(=O)c1ccc2nc(N(C)C(=O)C3CCC(=O)N3)oc2c1 (centres unmarked) [Compound 8, [1-Benzyl-2-hydroxy-3-(isobutyl-{2-[methyl-(5-oxo-pyrrolidine-2-carbonyl)-amino]-benzooxazole-6-sulfonyl}-amino)-propyl]-carbamic acid thiazol-5-ylmethyl ester]",10 to 32
9,"CC(C)CN(CC(O)C(Cc1ccccc1)NC(=O)OCc1cncs1)S(=O)(=O)c1ccc2nc(N(C)C(=O)c3ccncc3)oc2c1 (centres unmarked) [Compound 9, [1-Benzyl-2-hydroxy-3-(isobutyl-{2-[methyl-(pyridine-4-carbonyl)-amino]-benzooxazole-6-sulfonyl}-amino)-propyl]-carbamic acid thiazol-5-ylmethyl ester]",10 to 32
10,"CC(C)CN(CC(O)C(Cc1ccccc1)NC(=O)OCc1cncs1)S(=O)(=O)c1ccc2nc(N(C)C(=O)c3ccoc3)oc2c1 (centres unmarked) [Compound 10, [1-Benzyl-3-({2-[(furan-3-carbonyl)-methyl-amino]-benzo-oxazole-6-sulfonyl}-isobutyl-amino)-2-hydroxy-propyl]-carbamic acid thiazol-5-ylmethyl ester]",2 to 10
11,"CC(C)CN(CC(O)C(Cc1ccccc1)NC(=O)OCc1cncs1)S(=O)(=O)c1ccc2nc(NC(=O)C3CCCN3C)oc2c1 (centres unmarked) [Compound 11, [1-Benzyl-2-hydroxy-3-(isobutyl-{2-[(1-methyl-pyrrolidine-2-carbonyl)-amino]-benzooxazole-6-sulfonyl}-amino)-propyl]-carbamic acid thiazol-5-ylmethyl ester]",2 to 10
12,"CC(C)CN(CC(O)C(Cc1ccccc1)NC(=O)OCc1cncs1)S(=O)(=O)c1ccc2ncn(Cc3ccccc3)c2c1 (centres unmarked) [Compound 12, [1-Benzyl-3-[(3-benzyl-3H-benzoimidazole-5-sulfonyl)-isobutyl-amino]-2-hydroxy-propyl}-carbamic acid thiazol-5-ylmethyl ester]",2 to 10
13,"CC(C)CN(CC(O)C(Cc1ccccc1)NC(=O)OCc1cncs1)S(=O)(=O)c1ccc2nc(N)sc2c1 (centres unmarked) [Compound 13, {3-[(2-Amino-benzothiazole-6-sulfonyl)-isobutyl-amino]-1-benzyl-2-hydroxy-propyl}-carbamic acid thiazol-5-ylmethyl ester]",2 to 10
14,"CC(C)CN(CC(O)C(Cc1ccccc1)NC(=O)OCc1cncs1)S(=O)(=O)c1ccc2nc(NCCN(C)C)sc2c1 (centres unmarked) [Compound 14, (1-Benzyl-3-{[2-(2-dimethylamino-ethylamino)-benzo-thiazole-6-sulfonyl]-isobutyl-amino}-2-hydroxy-propyl)-carbamic acid thiazol-5-ylmethyl ester]",2 to 10
15,"CC(C)CN(CC(O)C(Cc1ccccc1)NC(=O)OCc1cncs1)S(=O)(=O)c1ccc2nc(NCCN3CCCC3)sc2c1 (centres unmarked) [Compound 15, (1-Benzyl-2-hydroxy-3-{isobutyl-[2-(2-pyrrolidin-1-yl-ethyl-amino)-benzothiazole-6-sulfonyl]-amino}-propyl)-carbamic acid thiazol-5-ylmethyl ester]",2 to 10
16,"CC(C)CN(CC(O)C(Cc1ccccc1)NC(=O)OCc1cncs1)S(=O)(=O)c1ccc2nc(NCCCN(C)C)sc2c1 (centres unmarked) [Compound 17, (1-Benzyl-3-{[2-(3-dimethylamino-propylamino)-benzo-thiazole-6-sulfonyl]-isobutyl-amino}-2-hydroxy-propyl)-carbamic acid thiazol-5-ylmethyl ester]",10 to 32
17,"CC(C)CN(CC(O)C(Cc1ccccc1)NC(=O)OCc1cncs1)S(=O)(=O)c1ccc2nc(NCCN3CCNCC3)sc2c1 (centres unmarked) [Compound 18, (1-Benzyl-2-hydroxy-3-{isobutyl-[2-(2-piperazin-1-yl-ethyl-amino)-benzothiazole-6-sulfonyl]-amino}-propyl)-carbamic acid thiazol-5-ylmethyl ester]",2 to 10
18,"CC(C)CN(CC(O)C(Cc1ccccc1)NC(=O)OCc1cncs1)S(=O)(=O)c1ccc2nc[nH]c2c1 (centres unmarked) [Compound 20, {3-[(3H-Benzoimidazole-5-sulfonyl)-isobutyl-amino]-1-benzyl-2-hydroxy-propyl}-carbamic acid thiazol-5-ylmethyl ester]",10 to 32
19,"CC(=O)N(C)c1nc2ccc(S(=O)(=O)N(CC(C)C)CC(O)C(Cc3ccccc3)NC(=O)OCc3cncs3)cc2s1 (centres unmarked) [Compound 21, (3-{[2-(Acetyl-methyl-amino)-benzothiazole-6-sulfonyl]-isobutyl-amino}-1-benzyl-2-hydroxy-propyl)-carbamic acid thiazol-5-ylmethyl ester]",10 to 32
20,"Nc1nc2ccc(S(=O)(=O)N(Cc3ccccn3)CC(O)C(Cc3ccccc3)NC(=O)OCc3cncs3)cc2o1 (centres unmarked) [Compound 22, {3-[(2-Amino-benzooxazole-6-sulfonyl)-pyridin-2-ylmethyl-amino]-1-benzyl-2-hydroxy-propyl}-carbamic acid thiazol-5-ylmethyl ester trifluoroacetate salt]",> 32

# Same assay, conditions: incubation of three days, luciferase activity
row,Structure (SMILES),EC50 [µM]
1,"CC(C)CN(CC(O)C(Cc1ccccc1)NC(=O)OCc1cncs1)S(=O)(=O)c1ccc2nc(N)oc2c1 (centres unmarked) [Compound 19, {3-[(2-Amino-benzooxazole-6-sulfonyl)-isobutyl-amino]-1-benzyl-2-hydroxy-propyl}-carbamic acid thiazol-5-ylmethyl ester]",2 to 10
2,"CC(C)CN(CC(O)C(Cc1ccccc1)NC(=O)OCc1cncs1)S(=O)(=O)c1ccc2nc(NC(=O)C3CCC(=O)N3)oc2c1 (centres unmarked) [Compound 23, [1-Benzyl-2-hydroxy-3-(isobutyl-{2-[(5-oxo-pyrrolidine-2-carbonyl)-amino]-benzooxazole-6-sulfonyl}-amino)-propyl]-carbamic acid thiazol-5-yl methyl ester]",10 to 32
3,"CC(C)CN(CC(O)C(Cc1ccccc1)NC(=O)OCc1cncs1)S(=O)(=O)c1ccc2nc(NC(=O)C3CCC(=O)N3)oc2c1 (centres unmarked) [Compound 24, [1-Benzyl-2-hydroxy-3-(isobutyl-{2-[(5-oxo-pyrrolidine-2-carbonyl)-amino]-benzooxazole-6-sulfonyl}-amino)-propyl]-carbamic acid thiazol-5-yl methyl ester]",2 to 10

# Source: patent US20080234288A1, “Hcv Inhibiting Sulfonamides” (priority 2003, published 2008)
